Test results reported in patent US20170216277A1, “[…] USE OF […] […] EFFECTS” (TREVI THERAPEUTICS, INC., priority 2016, published 2017).

Assays:
[1] = Overall evaluation of aquaretic effect, TR01; type: in vivo, human
Protocol: (§1) The presence and extent of a possible aquaretic effect was evaluated by measuring urine output (healthy subjects only) and serum sodium as well as blood pressure and heart rate, as markers of potential volume depletion. Urine specific gravity was also analyzed to assess for reduced urine osmolarity (resulting in a decrease in urine specific gravity) due to free water excretion.

[2] = Adverse event reporting of increased urine output, TR01, hemodialysis patients; type: in vivo, human; conditions: dialysis patients in TR01; urine collection not performed
Source text: Based on historical data, the dialysis patients in TR01 had limited to no residual renal function.

[3] = Heart rate, TR01, healthy subjects; type: in vivo, human
Protocol: (§2) The presence and extent of a possible aquaretic effect was evaluated by measuring urine output (healthy subjects only) and serum sodium as well as blood pressure and heart rate, as markers of potential volume depletion.
(§3) In the dialysis patients, all vital sign measurements and blood samples were collected pre-dialysis. On days of study drug administration, vital signs were measured at 0 (prior to the morning dose), 1.5, 4.5, and 8 hours after the morning dose and 2 hours after the evening meal, coinciding with administration of the PM dose. Blood pressure was also measured at 6 and 10 hours post dinner. On Day −1 (pre-treatment) vital sign measurements were obtained in the morning and evening at approximately the same time that study drug was administered on subsequent treatment days.
(§4) Blood pressure and heart rate were measured at multiple time points on Days −1 through 14 or 17.

[4] = Serum sodium (pre-dialysis), TR01, hemodialysis patients (Cohort 1); type: in vivo, human
[5] = oral aqueous solution; fasted conditions, across studies
[6] = Urine output over 24 hours, Phase I trial TR01, healthy subjects (Cohort 2); conditions: five 24-hour collections, progressively higher doses
Protocol: as §1

[7] = Heart rate, TR01, hemodialysis patients; type: in vivo, human
Protocol: as §2, §3, §4

[8] = Serum sodium, TR01, healthy subjects (Cohort 2); type: in vivo, human
[9] = Blood pressure (diastolic and systolic), TR01, healthy subjects
Protocol: as §2, §3, §4

[10] = Blood pressure (diastolic and systolic), TR01, hemodialysis patients
Protocol: as §2, §3, §4

With “17-(cyclobutylmethyl)-4,5α-epoxymorphinian-3,6α,14-triol, hydrochloride [nalbuphine]” the Aquaretic effect ([1]; dialysis patients, doses up to 240 mg BID) was “no evidence of an aquaretic effect”, the Aquaretic effect ([1]; healthy subjects, doses up to 180 mg BID) was “no evidence of an aquaretic effect” and the “Adverse event of increased urine output” value [2] was “no adverse event of increased urine output was reported”. For the same substance, the “Dose or time-dependent mean heart rate increase” value [3] was “no evidence of a dose or time-dependent mean heart rate increase”, the “Hypernatremia during nalbuphine treatment” value [4] was “No healthy subject (Table 5) or hemodialysis patient” and the “Trend of rising serum sodium during the treatment period” value [4] was “nor was there a trend of rising serum sodium”. The “Median Tmax” value [5] was 30 to 60 min, the “Increased urine output related to dose or duration of time on nalbuphine” value [6] was “no evidence of increased urine output” and the “Dose or time-dependent mean heart rate increase” value [7] was “no evidence of a dose or time-dependent mean heart rate increase”. For the same substance, the “Hypernatremia during nalbuphine treatment” value [8] was “No healthy subject”, the “Trend of rising serum sodium during the treatment period” value [8] was “nor was there a trend of rising serum sodium” and the “Systolic blood pressure range throughout the study” value [9] was 78-148 mmHg. The “Dose-related reductions in blood pressure” value ([9]; Days −1 through 14) was “no consistent dose-related reductions in blood pressure”, the Hypotension ([9]; throughout the study) was “no subjects or patients developed hypotension” and the “Systolic blood pressure range throughout the study” value ([10]; dialysis patients) was 70-199 mmHg. For the same substance, the “Dose-related reductions in blood pressure” value ([10]; hemodialysis patients, Days −1 through 14 or 17) was “no consistent dose-related reductions in blood pressure” and the Hypotension ([10]; hemodialysis patients, throughout the study) was “no subjects or patients developed hypotension”.
